Structures are written as SMILES. Structures can show the parent of a compound that is named as a salt.

The values that follow come from patent US10703765B2 (priority 2014, dated 2020).

In one experiment the target is human σ1 receptor (Homo sapiens, UniProt Q99720). Nature of the experiment: biochemical. Format: binding. Details: μ and σ1 dual binding: key to the marks not given beside the values.
human σ1 receptor, sequence (Q99720 whole entry): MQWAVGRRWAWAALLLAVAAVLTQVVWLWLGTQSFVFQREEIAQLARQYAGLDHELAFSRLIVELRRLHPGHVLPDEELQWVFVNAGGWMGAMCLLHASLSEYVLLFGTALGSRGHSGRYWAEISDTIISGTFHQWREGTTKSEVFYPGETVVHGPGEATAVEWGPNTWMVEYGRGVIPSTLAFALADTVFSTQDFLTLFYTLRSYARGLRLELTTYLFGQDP
Details: not given
On to `CC1OC2(CCN(CCc3ccccc3)CC2)CN(c2ccccc2O)C1=O` (stereo not drawn) [Example 296, 4-(2-hydroxyphenyl)-2-methyl-9-phenethyl-1-oxa-4,9-diazaspiro[5.5]undecan-3-one], for which the “μ and σ1 dual binding” value is “++”.
Same read-out and setting: the same measure for `CC(=O)Nc1ccccc1CCN1CCC2(CC1)CN(c1ccccc1)C(=O)C(C)O2` (stereo not drawn) [Example 245, N-(2-(2-(2-methyl-3-oxo-4-phenyl-1-oxa-4,9-diazaspiro[5.5]undecan-9-yl)ethyl)phenyl)acetamide]: “++”; for `CC(=O)Nc1cccc(CCN2CCC3(CC2)CN(c2ccccc2)C(=O)C(C)O3)n1.Cl` (stereo not drawn) [Example 254, N-(6-(2-(2-methyl-3-oxo-4-phenyl-1-oxa-4,9-diazaspiro[5.5]undecan-9-yl)ethyl)pyridin-2-yl)acetamide hydrochloride]: “++”.
On the same count and under the same terms, the same measure for `COCC1OC2(CCN(CCc3ccccn3)CC2)CN(c2ccccc2F)C1=O.Cl` (stereo not drawn) [Example 134, 4-(2-fluorophenyl)-2-(methoxymethyl)-9-(2-(pyridin-2-yl)ethyl)-1-oxa-4,9-diazaspiro[5.5]undecan-3-one hydrochloride]: “++”.
`CC1OC2(CCN(CCc3ccc(F)cn3)CC2)CN(c2ccccc2)C1=O` (stereo not drawn) [Example 94, 9-(2-(5-fluoropyridin-2-yl)ethyl)-2-methyl-4-phenyl-1-oxa-4,9-diazaspiro[5.5]undecan-3-one hydrochloride] came in with a Ki of less than 500 nM.

Still in this experiment, the particulars now being: combined class from Ki-σ1 (human σ1 receptor, A1) and Ki-μ (human μ-opioid receptor, A2) radioligand binding.
`CC1OC2(CCN(CCc3ncccc3N)CC2)CN(c2ccccc2F)C1=O` (stereo not drawn) [Example 232, 9-(2-(3-aminopyridin-2-yl)ethyl)-4-(2-fluorophenyl)-2-methyl-1-oxa-4,9-diazaspiro[5.5]undecan-3-one]: the “μ and σ1 dual binding” value is given as “++”.

Still in this experiment, the particulars now being: read-out: μ and σ1 dual binding.
Turning to `CC(C)=C1OC2(CCN(CCc3scnc3C)CC2)CN(c2ccccc2F)C1=O` [Example 141, 4-(2-fluorophenyl)-9-(2-(4-methylthiazol-5-yl)ethyl)-2-(propan-2-ylidene)-1-oxa-4,9-diazaspiro[5.5]undecan-3-one hydrochloride], the Ki is less than 500 nM.
As to `CC1OC2(CCN(CCc3ccccc3)CC2)CN(c2cccc(C(=O)O)c2)C1=O` (stereo not drawn) [Example 268, 3-(2-methyl-3-oxo-9-phenethyl-1-oxa-4,9-diazaspiro[5.5]undecan-4-yl)benzoic acid], the Ki was greater than 500 nM.
The same measure, in the same setting: the same measure for `CC1OC2(CCN(CCc3ccccc3)CC2)CN(Cc2ccncc2)C1=O` (stereo not drawn) [Example 162, 2-methyl-9-phenethyl-4-(pyridin-4-ylmethyl)-1-oxa-4,9-diazaspiro[5.5]undecan-3-one]: less than 500 nM; for `Oc1cccc(N2CCOC3(CCN(Cc4ccccc4)CC3)C2)c1` [Example 318, 3-(9-benzyl-1-oxa-4,9-diazaspiro[5.5]undecan-4-yl)phenol]: less than 500 nM.
For `c1ccc(CCN2CCC3(CC2)CN(Cc2ccccc2)CCO3)cc1` [Example 324, 4-benzyl-9-phenethyl-1-oxa-4,9-diazaspiro[5.5]undecane dihydrochloride], the Ki was less than 100 nM.
On the same count and under the same terms, with `O=C1COC2(CCN(CCc3ccccc3)CC2)CN1c1cccc(O)c1` [Example 288, 4-(3-hydroxyphenyl)-9-phenethyl-1-oxa-4,9-diazaspiro[5.5]undecan-3-one] the figure was less than 500 nM; with `Oc1cccc(N2CCOC3(CCN(CCc4ccccc4)CC3)C2)c1` [Example 316, 3-(9-phenethyl-1-oxa-4,9-diazaspiro[5.5]undecan-4-yl)phenol], less than 500 nM; with `O=C1N(Cc2ccc(C(F)(F)F)cn2)CC2(CCN(CCc3ccccc3)CC2)OC12CC2` [Example 187, 8-phenethyl-12-{[5-(trifluoromethyl)pyridin-2-yl]methyl}-4-oxa-8,12-diazadispiro[2.1.5.3]tridecan-13-one dihydrochloride], less than 100 nM.
Take `O=C1N(c2ncccc2C(F)(F)F)CC2(CCN(CCc3cc(F)ccc3F)CC2)OC12CC2` [Example 343, 8-(2,5-difluorophenethyl)-12-(3-(trifluoromethyl)pyridin-2-yl)-4-oxa-8,12-diazadispiro[2.1.5.3]tridecan-13-one]: the Ki was less than 500 nM.
